Data reported in ChEMBL document CHEMBL5154867, “Baylis-Hillman Adducts as a Versatile Module for Constructing Fluorogenic Release System” (J Med Chem, 2022).

Legend:
[1] = Prodrug activation in PBS at pH 7.4 assessed as drug release by measuring maximal fluorescence change at 10 uM in presence of 1 mM GSH measured immediately relative to control; conditions: buffer, pH 7.4, 10 µM
[2] = Prodrug activation in PBS at pH 7.4 assessed as drug release by measuring maximal fluorescence change at 10 uM in presence of 1 mM GSH measured after 10 mins relative to control; conditions: buffer, pH 7.4, 10 min
[3] = Prodrug activation in PBS at pH 7.4 assessed as drug release by measuring maximal fluorescence change at 10 uM in presence of 1 mM GSH measured after 20 mins relative to control; conditions: buffer, pH 7.4, 20 min
[4] = Prodrug activation in PBS at pH 7.4 assessed as drug release by measuring maximal fluorescence change at 10 uM in presence of 1 mM GSH measured after 30 mins relative to control; conditions: buffer, pH 7.4, 0.5 h
[5] = Prodrug activation in PBS at pH 7.4 assessed as drug release by measuring maximal fluorescence change at 10 uM in presence of 1 mM GSH measured after 40 mins relative to control; conditions: buffer, pH 7.4, 40 min
[6] = Prodrug activation in PBS at pH 7.4 assessed as drug release by measuring maximal fluorescence change at 10 uM in presence of 1 mM GSH measured after 50 mins relative to control; conditions: buffer, pH 7.4, 50 min
[7] = Prodrug activation in PBS at pH 7.4 assessed as drug release by measuring maximal fluorescence change at 10 uM in presence of 1 mM GSH measured after 60 mins relative to control; conditions: buffer, pH 7.4, 1 h
[8] = Prodrug activation in PBS at pH 7.4 assessed as drug release at 10 uM in presence of 1 mM GSH measured immediately by HPLC analysis relative to control; conditions: buffer, pH 7.4, 10 µM
[9] = Prodrug activation in PBS at pH 7.4 assessed as drug release at 10 uM in presence of 1 mM GSH measured after 10 mins by HPLC analysis relative to control; conditions: buffer, pH 7.4, 10 min
[10] = Prodrug activation in PBS at pH 7.4 assessed as drug release at 10 uM in presence of 1 mM GSH measured after 20 mins by HPLC analysis relative to control; conditions: buffer, pH 7.4, 20 min
[11] = Prodrug activation in PBS at pH 7.4 assessed as drug release at 10 uM in presence of 1 mM GSH measured after 30 mins by HPLC analysis relative to control; conditions: buffer, pH 7.4, 0.5 h
[12] = Prodrug activation in PBS at pH 7.4 assessed as drug release at 10 uM in presence of 1 mM GSH measured after 40 mins by HPLC analysis relative to control; conditions: buffer, pH 7.4, 40 min
[13] = Prodrug activation in PBS at pH 7.4 assessed as drug release at 10 uM in presence of 1 mM GSH measured after 50 mins by HPLC analysis relative to control; conditions: buffer, pH 7.4, 50 min
[14] = Prodrug activation in PBS at pH 7.4 assessed as drug release at 10 uM in presence of 1 mM GSH measured after 60 mins by HPLC analysis relative to control; conditions: buffer, pH 7.4, 1 h
[15] = Prodrug activation in PBS at pH 7.4 assessed as drug release by measuring maximal fluorescence change at 10 uM in presence of 2 mM GSH measured immediately relative to control; conditions: buffer, pH 7.4, 10 µM
[16] = Prodrug activation in PBS at pH 7.4 assessed as drug release by measuring maximal fluorescence change at 10 uM in presence of 2 mM GSH measured after 10 mins relative to control; conditions: buffer, pH 7.4, 10 min
[17] = Prodrug activation in PBS at pH 7.4 assessed as drug release by measuring maximal fluorescence change at 10 uM in presence of 2 mM GSH measured after 20 mins relative to control; conditions: buffer, pH 7.4, 20 min
[18] = Prodrug activation in PBS at pH 7.4 assessed as drug release by measuring maximal fluorescence change at 10 uM in presence of 2 mM GSH measured after 30 mins relative to control; conditions: buffer, pH 7.4, 0.5 h
[19] = Prodrug activation in PBS at pH 7.4 assessed as drug release by measuring maximal fluorescence change at 10 uM in presence of 2 mM GSH measured after 40 mins relative to control; conditions: buffer, pH 7.4, 40 min
[20] = Prodrug activation in PBS at pH 7.4 assessed as drug release by measuring maximal fluorescence change at 10 uM in presence of 2 mM GSH measured after 50 mins relative to control; conditions: buffer, pH 7.4, 50 min
[21] = Prodrug activation in PBS at pH 7.4 assessed as drug release by measuring maximal fluorescence change at 10 uM in presence of 2 mM GSH measured after 60 mins relative to control; conditions: buffer, pH 7.4, 1 h
[22] = Prodrug activation in PBS at pH 7.4 assessed as drug release at 10 uM in presence of 2 mM GSH measured immediately by HPLC analysis relative to control; conditions: buffer, pH 7.4, 10 µM
[23] = Prodrug activation in PBS at pH 7.4 assessed as drug release at 10 uM in presence of 2 mM GSH measured after 10 mins by HPLC analysis relative to control; conditions: buffer, pH 7.4, 10 min
[24] = Prodrug activation in PBS at pH 7.4 assessed as drug release at 10 uM in presence of 2 mM GSH measured after 20 mins by HPLC analysis relative to control; conditions: buffer, pH 7.4, 20 min
[25] = Prodrug activation in PBS at pH 7.4 assessed as drug release at 10 uM in presence of 2 mM GSH measured after 30 mins by HPLC analysis relative to control; conditions: buffer, pH 7.4, 0.5 h
[26] = Prodrug activation in PBS at pH 7.4 assessed as drug release at 10 uM in presence of 2 mM GSH measured after 40 mins by HPLC analysis relative to control; conditions: buffer, pH 7.4, 40 min
[27] = Prodrug activation in PBS at pH 7.4 assessed as drug release at 10 uM in presence of 2 mM GSH measured after 50 mins by HPLC analysis relative to control; conditions: buffer, pH 7.4, 50 min
[28] = Prodrug activation in PBS at pH 7.4 assessed as drug release at 10 uM in presence of 2 mM GSH measured after 60 mins by HPLC analysis relative to control; conditions: buffer, pH 7.4, 1 h
[29] = Prodrug activation in PBS at pH 7.4 assessed as drug release by measuring maximal fluorescence change at 10 uM in presence of 2 mM GSH measured after 60 to 300 mins relative to control; conditions: buffer, pH 7.4, 10 µM, time 60-300 min
[30] = Prodrug activation in PBS at pH 7.4 assessed as drug release at 10 uM in presence of 2 mM GSH measured after 60 to 300 mins by HPLC analysis relative to control; conditions: buffer, pH 7.4, 10 µM, time 60-300 min

SMILES	Activity [1]	Activity [2]	Activity [3]	Activity [4]	Activity [5]	Activity [6]	Activity [7]	Activity [8]	Activity [9]	Activity [10]	Activity [11]	Activity [12]	Activity [13]	Activity [14]	further results
C=C(CSc1ccccc1)C(=O)c1ccc2cc(N(C)C)ccc2c1	3.1%	27.2%	53.5%	72.2%	86.3%	93.7%	96.5%	0%	42.6%	76.6%	90.6%	95.1%	94.8%	95.4%	
C=C(COC(=O)c1ccccc1)C(=O)c1ccc2cc(N(C)C)ccc2c1															Activity [15]: 1.4%; Activity [16]: 40.1%; Activity [17]: 71.2%; Activity [18]: 88.1%; Activity [19]: 95.7%; Activity [20]: 97.8%; Activity [21]: 83.2%; Activity [22]: 0%; Activity [23]: 92.8%; Activity [24]: 97.3%; Activity [25]: 98.6%; Activity [26]: 98.7%; Activity [27]: 99.9%; Activity [28]: 72.1%
C=C(COC(=O)Cc1ccccc1)C(=O)c1ccc2cc(N(C)C)ccc2c1	1.2%	42.4%	71.5%	89.2%	95.3%	97.7%	98.1%	0%	94.3%	97.1%	98.3%	97.5%	98.7%	99.1%	
C=C(COC(=O)OCc1ccccc1)C(=O)c1ccc2cc(N(C)C)ccc2c1	3.9%	41%	65.4%	83.6%	96.5%	96.5%	97.4%	0%	93.4%	94.5%	95.5%	94.6%	94.6%	95.1%	
C=C(CN(C)Cc1ccccc1)C(=O)c1ccc2cc(N(C)C)ccc2c1	3.8%	50.5%	72.5%	85.1%	93.5%	96.5%	97.1%	0%	88.2%	91.8%	92.2%	92%	93.1%	92.4%	
C=C(COc1ccccc1)C(=O)c1ccc2cc(N(C)C)ccc2c1	0.7%	38.8%	70.1%	87.9%	95.5%	97.3%	99.1%	0%	91.2%	93.5%	93.5%	92.7%	93.2%	93.5%	
C=C(CSCc1ccccc1)C(=O)c1ccc2cc(N(C)C)ccc2c1															Activity [15]: 4.8%; Activity [16]: 14.8%; Activity [17]: 22.1%; Activity [18]: 27.5%; Activity [19]: 42.2%; Activity [20]: 78.3%; Activity [29]: 98.6%; Activity [22]: 0%; Activity [23]: 5.6%; Activity [24]: 13.9%; Activity [25]: 19.9%; Activity [26]: 35.2%; Activity [27]: 68.6%; Activity [30]: 99.9%
C=C(C[N+](C)(C)Cc1ccccc1)C(=O)c1ccc2cc(N(C)C)ccc2c1.[Br-]	0.5%	48.1%	90.6%	90.6%	97.2%	98.4%	99%	0%	95.6%	97.8%	98.2%	98.5%	99.6%	98.9%	
C=C(COC(=O)Nc1ccccc1)C(=O)c1ccc2cc(N(C)C)ccc2c1	2.7%	39.3%	64.6%	79.9%	88.9%	94.6%	96.5%	0%	82.6%	91.1%	96.5%	97.1%	97.9%	98.2%	
